The test system of test [1] is CD24^−/CD44^+‐breast CSC population sorted from MDA‐MB‐231. Kind of test: MTT assay in sorted breast CSC population. The class given is cell-based, human. The conditions noted are these: doxorubicin 0.01 μM + 1e 5 μM vs doxorubicin 0.01 μM alone. As to the method: To evaluate the cytotoxicity profile of the potential EGFR inhibitors (compounds) against TNBC cell lines—MDA‐MB‐231, MDA‐MB‐468, and control cell line HEK293, cells were seeded at a cell density of 5 × 10^3 cells/well in complete medium onto 96‐well plates. Here, the non‐tumoral human embryonic kidney (HEK293) epithelial cells have been utilized as a control cell line to compare the IC50 values of the compounds between cancerous and non‐cancerous cell lines with a big therapeutic window. The use of HEK293 cells as compared to other non‐cancerous cell lines are easy to maintain in culture and the results obtained from HEK293 are highly reproducible and consistent.[27] Briefly, the cells were incubated at 37°C for 12 h to attain morphology. After 12 h, cells were serum starved by replacing the complete media with media containing 2% FBS to synchronize the cells. […] All the experiments were performed thrice and the IC50 values of the compounds and Doxorubicin were calculated using GraphPad Prism software version 9 (San Diego, CA, USA). Similarly, the percent inhibition of the sorted cell populations by chemotherapeutic drug, doxorubicin in the absence/presence of potent compound 1e or standard EGFR inhibitor, PD153035 was evaluated utilizing GraphPad Prism Version 9 (San Diego, CA, USA).
For orientation: Tetrazolium assays rely on reduction of a dye to a coloured formazan, in cell work by metabolically active cells.

The subject of test [2] is CD24^+‐breast cancer cells. Kind of test: Mammosphere forming efficiency, sorted cells. It counts as cell-based, human. The settings on record: doxorubicin 0.01 μM + 1e. The procedure:
(§1) TNBC cell lines—MDA‐MB‐231, MDA‐MB‐468, or the sorted CD24^+‐breast cancer cells, and CD24^−/CD44^+‐breast CSC populations from MDA‐MB‐231 [6] were seeded at a 1 × 10^4 cells/well density in mammosphere‐specific medium—Medium‐171 (Gibco, USA), supplemented with mammary epithelial growth supplement (MEGS) and B‐27 (Life technologies, Auckland, New Zealand) as described previously.[6], [26] TNBC cells or the sorted breast cancer cells and CSCs were plated onto poly‐hydroxyethyl methacrylate (Sigma‐Aldrich, USA) coated 24‐well plates and subjected to treatment with DMSO (Vehicle), Doxorubicin (0.01 and 0.1 μM) alone or with the potential EGFR inhibitors (compounds—1c, 1e, 1g, 1h, 1j, and 1k (5 μM) based on their low IC50 values) or a commercial EGFR inhibitor, PD153035 (10 μM). The suspension cultures were incubated under 5% CO2, at 37°C in a humidified atmosphere for 7 days. At the end of the treatment period, the images of mammospheres were taken at 10× magnification using a microscope (Olympus IX71, Tokyo, Japan). The size of spheres was measured using ImageJ software (NIH, Bethesda, MD, USA).

In test [3] the test system is CD24^−/CD44^+‐breast CSCs. Kind of test: Mammosphere forming efficiency, sorted cells. The conditions noted are these: doxorubicin 0.01 μM + 1e. It counts as cell-based, human. As to the method: as §1
Test [4] deals with BAX, BCL‐2, cytochrome‐C in MDA‐MB‐231 cells. Kind of test: Immunoblot analysis of apoptotic markers. The class given is cell-based, human. The settings on record: MDA-MB-231, doxorubicin 0.01 μM + compound 5 μM. As to the method:
MDA‐MB‐231 cells were subjected to the treatment of doxorubicin (0.01 μM) in the absence/presence of the selected potent compounds—1c, 1e, 1g, 1h, 1j, and 1k at 5 μM concentration or a standard EGFR inhibitor, PD153035 (10 μM) for 48 h. Separately, TNBC cells—MDA‐MB‐231 were also treated with doxorubicin (0.01 and/or 0.1 μM) in the absence/presence of potent EGFR inhibitor/compound, 1e at 5 μM concentration or a standard EGFR inhibitor, PD153035 (10 μM) for 48 h. Cells were then lysed to isolate the total protein and subjected to SDS‐PAGE, transferred onto a poly (vinylidene difluoride) membrane, probing with primary antibodies (Table ST2) against apoptotic markers—BAX, BCL‐2, cytochrome‐C, and β‐actin followed by incubation with horseradish peroxidase‐conjugated secondary antibodies (CST, Waltham, MA, USA) as described previously.[6] Visualization was performed using G: Box (Syngene, Cambridge, UK).

Test [5] deals with CD24^−/CD44^+‐breast CSCs xenotransplanted tumors. Kind of test: Preclinical orthotopic xenograft murine tumor model (tumor size, weight, H&E histology). The class given is in vivo, C57BL/6 mice. As to the method: Animal studies have been carried out with the prior approval of the Institutional Animal Ethics Committee (IICT/IAEC/025/2023). C57BL/6 female mice of age 6–8 weeks (N = 35) were initially immunosuppressed with cyclophosphamide (50 mg/kg of body weight, i.p) on alternate days for 2 weeks. For generating a preclinical orthotopic xenograft tumor model, 2 × 10^6 GFP expressing sorted stable CD24^+‐breast cancer cells and CD24^−/CD44^+‐breast CSCs were orthotopically xeno‐transplanted subcutaneously at the fourth mammary fat pad of immune‐suppressed mice (n = 5/group). Subsequently, intratumoral administration of Doxorubicin at a low dose (2.5 mg/kg of body weight), high dose (10 mg/kg of body weight), and/or combinatorial treatment of the potent EGFR inhibitor, compound 1e (50 mg/kg of body weight) or the commercial EGFR inhibitor, PD153035 (50 mg/kg of body weight) with a low dose of doxorubicin was performed to the palpable tumors of breast CSCs at day‐3 post‐transplantation.
Euthanization of mice was performed on day 14 post‐transplantation and tumor tissues were collected for histological and immunohistochemical analysis. Histological differences in tumor tissues were evaluated using hematoxylin and eosin staining (H&E).[28], [30]

Consider `c1cncc(C(c2c[nH]c3ccccc23)c2c[nH]c3ccccc23)c1` [1e], for which the “increase of percent inhibition of cell proliferation versus doxorubicin alone” value in test [1] turned out to be 6.1 folds. Further, the mammosphere forming efficiency result in test [2] was “significant decrease”. For the same compound, in test [3], the mammosphere forming efficiency result is given as “significant decrease”. Further, in test [4] (48 h), the BAX protein level result is listed as “elevation”, the BAX/BCL2 ratio result is given as “elevation” and the BCL2 levels entry is listed as “marked decrease”. Moreover, in test [4] (vs the other compounds), the “doxorubicin‐induced expression of Cyt‐C” value is on record as “comparatively higher levels”. For the same compound, the “tumorigenicity (H&E histology)” value in test [5] (50 mg/kg + low dose doxorubicin 2.5 mg/kg, CSC xenograft) is “significant decrease”. For the same compound, the “histopathological finding in tumor tissue” value in test [5] (50 mg/kg + low dose doxorubicin 2.5 mg/kg, CSC xenograft, day 14) was “no tumor mass”. For the same compound, the tumor size entry in test [5] (intratumoral, 50 mg/kg + doxorubicin low dose 2.5 mg/kg vs low dose doxorubicin alone, CD24^−/CD44^+ CSC xenograft) was “significantly decreased”.

The record behind these values is PMC10961089, “Epidermal growth factor receptor inhibition potentiates chemotherapeutics‐mediated sensitization of metastatic breast cancer stem cells” (Cancer Reports, 2024).
